Data taken from the supplement of paper PMC6045584.
± gives the standard deviation of the averaged measurements.

Tests used:
MLN-4924 = compound: NS(=O)(=O)OC[C@@H]1C[C@@H](n2ccc3c(N[C@H]4CCc5ccccc54)ncnc32)C[C@@H]1O [MLN-4924]; experiment: surviving fraction relative to DMSO-only wells; higher = less growth inhibition; settings: exposure time: 5 days
How it was run: (§1)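 Tumour cell lines were seeded in log phase at 250–500 cells per well into 384-well plates. Starting 24 hours later, inhibitors were present continuously for five days at 0.5, 1, 5, 10, 50, 100, 500 and 1000 nM. Surviving fraction, from CellTiter-Glo luminescence, is normalised to the median of DMSO-only wells. Three screens per line were required, with replicate Pearson r >0.7 and median Z' >0.3 for a line to be kept.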

OLAPARIB = compound: O=C(c1cc(Cc2n[nH]c(=O)c3ccccc23)ccc1F)N1CCN(C(=O)C2CC2)CC1 [OLAPARIB]; experiment: as above; settings: exposure time: 5 days
How it was run: as §1

Row | Test System | surviving fraction (MLN-4924; 0.5 nM) | surviving fraction (MLN-4924; 1 nM) | surviving fraction (MLN-4924; 5 nM) | surviving fraction (MLN-4924; 10 nM) | surviving fraction (MLN-4924; 50 nM) | surviving fraction (MLN-4924; 100 nM) | surviving fraction (MLN-4924; 500 nM) | surviving fraction (MLN-4924; 1000 nM) | surviving fraction (OLAPARIB; 0.5 nM) | surviving fraction (OLAPARIB; 1 nM) | surviving fraction (OLAPARIB; 5 nM) | surviving fraction (OLAPARIB; 10 nM) | surviving fraction (OLAPARIB; 50 nM) | surviving fraction (OLAPARIB; 100 nM) | surviving fraction (OLAPARIB; 500 nM) | surviving fraction (OLAPARIB; 1000 nM)
1 | CAL72 BONE | 1.02 ± 0.11 | 0.996 ± 0.12 | 1.02 ± 0.1 | 1.04 ± 0.068 | 1.1 ± 0.031 | 0.933 ± 0.085 | 0.299 ± 0.063 | 0.154 ± 0.042 | 1.05 ± 0.017 | 1.098 ± 0.0086 | 1.0433 ± 0.00058 | 1.06 ± 0.033 | 0.98 ± 0.029 | 0.958 ± 0.027 | 0.949 ± 0.021 | 0.901 ± 0.029
2 | CAL120 BREAST | 0.961 ± 0.064 | 0.963 ± 0.028 | 0.952 ± 0.06 | 0.889 ± 0.068 | 0.667 ± 0.057 | 0.482 ± 0.036 | 0.14 ± 0.0021 | 0.121 ± 0.0033 | 0.9857 ± 0.0086 | 0.998 ± 0.018 | 1 ± 0.023 | 0.973 ± 0.024 | 0.979 ± 0.01 | 0.942 ± 0.04 | 0.892 ± 0.013 | 0.825 ± 0.043
3 | CASKI CERVIX | 0.955 ± 0.033 | 0.961 ± 0.028 | 1.04 ± 0.084 | 1.03 ± 0.082 | 0.507 ± 0.017 | 0.301 ± 0.016 | 0.168 ± 0.013 | 0.153 ± 0.0032 | 0.921 ± 0.029 | 0.947 ± 0.057 | 0.993 ± 0.051 | 0.982 ± 0.015 | 0.859 ± 0.016 | 0.844 ± 0.026 | 0.749 ± 0.075 | 0.765 ± 0.068
4 | CHLA90 AUTONOMIC GANGLIA | 1.006 ± 0.0078 | 0.969 ± 0.05 | 0.984 ± 0.062 | 1.03 ± 0.019 | 1.2 ± 0.065 | 0.993 ± 0.028 | 0.697 ± 0.13 | 0.525 ± 0.041 | 1.02 ± 0.065 | 1.07 ± 0.037 | 1.01 ± 0.035 | 0.993 ± 0.048 | 0.95 ± 0.052 | 1.01 ± 0.078 | 0.963 ± 0.061 | 0.966 ± 0.059
5 | CME SYNOVIAL | 1.19 ± 0.11 | 1.25 ± 0.15 | 1.32 ± 0.19 | 1.27 ± 0.07 | 0.692 ± 0.1 | 0.271 ± 0.026 | 0.273 ± 0.019 | 0.304 ± 0.023 | 1.29 ± 0.3 | 1.27 ± 0.059 | 1.23 ± 0.11 | 1.16 ± 0.22 | 0.737 ± 0.14 | 0.616 ± 0.051 | 0.386 ± 0.053 | 0.303 ± 0.021
6 | COLO320DM LARGE INTESTINE | 1.1 ± 0.026 | 1.21 ± 0.045 | 1.14 ± 0.12 | 1.15 ± 0.1 | 1.06 ± 0.043 | 0.996 ± 0.03 | 0.803 ± 0.11 | 0.693 ± 0.03 | 1.13 ± 0.19 | 0.997 ± 0.15 | 1.09 ± 0.046 | 1.03 ± 0.21 | 1.07 ± 0.091 | 1.03 ± 0.082 | 1.06 ± 0.048 | 0.991 ± 0.03
7 | DU4475 BREAST | 0.976 ± 0.098 | 1.02 ± 0.028 | 0.894 ± 0.049 | 0.683 ± 0.11 | 0.033 ± 0.001 | 0.0267 ± 0.0042 | 0.0323 ± 0.0011 | 0.0333 ± 0.0011 | 1.16 ± 0.21 | 1.36 ± 0.5 | 1.228 ± 0.009 | 1.22 ± 0.31 | 0.954 ± 0.28 | 0.739 ± 0.23 | 0.689 ± 0.21 | 0.517 ± 0.15
8 | H23 LUNG | 0.992 ± 0.05 | 1.01 ± 0.053 | 1.07 ± 0.044 | 1.09 ± 0.049 | 1.18 ± 0.083 | 0.886 ± 0.073 | 0.14 ± 0.01 | 0.082 ± 0.004 | 1.09 ± 0.03 | 1.07 ± 0.02 | 1.1 ± 0.022 | 1.064 ± 0.004 | 1.22 ± 0.03 | 1.13 ± 0.041 | 1.14 ± 0.0042 | 1.08 ± 0.02
9 | HCC78 LUNG | 0.845 ± 0.11 | 0.588 ± 0.064 | 0.722 ± 0.17 | 0.808 ± 0.15 | 0.487 ± 0.067 | 0.27 ± 0.1 | 0.0393 ± 0.011 | 0.0343 ± 0.0078 | 0.948 ± 0.06 | 0.986 ± 0.2 | 1.03 ± 0.32 | 1.22 ± 0.46 | 1.12 ± 0.1 | 1.05 ± 0.12 | 0.987 ± 0.19 | 0.859 ± 0.068
10 | HCC202 BREAST | 1.14 ± 0.32 | 1.07 ± 0.26 | 1.24 ± 0.12 | 1.131 ± 0.0092 | 0.731 ± 0.22 | 0.557 ± 0.22 | 0.299 ± 0.066 | 0.265 ± 0.015 | 0.896 ± 0.024 | 0.973 ± 0.12 | 0.987 ± 0.19 | 0.92 ± 0.2 | 0.713 ± 0.2 | 0.68 ± 0.026 | 0.737 ± 0.075 | 0.649 ± 0.1
